# Laboratory results published in PubChem BioAssay (NCI).
#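 A five-concentration, 48-hour dose response in 96-well plates underlies each endpoint, interpolated linearly between surrounding concentrations. GI50 is the concentration that inhibits growth by half. TGI marks complete inhibition of growth.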
# Key:
# Experiment in all cases: NCI tumour cell line growth inhibition, 48 h
# SF-268 CNS = tested on: SF-268 CNS
# T-47D breast = tested on: T-47D breast
# HCT-116 colon = tested on: HCT-116 colon
# NCI-H23 lung = tested on: NCI-H23 lung
# PC-3 prostate = tested on: PC-3 prostate
# SF-539 CNS = tested on: SF-539 CNS
# RXF 393 renal = tested on: RXF 393 renal
# MCF7 breast = tested on: MCF7 breast
# SK-MEL-2 melanoma = tested on: SK-MEL-2 melanoma
# KM12 colon = tested on: KM12 colon
# LOX IMVI melanoma = tested on: LOX IMVI melanoma
# U251 CNS = tested on: U251 CNS
# SNB-75 CNS = tested on: SNB-75 CNS
# M14 melanoma = tested on: M14 melanoma
# UO-31 renal = tested on: UO-31 renal
# HCT-15 colon = tested on: HCT-15 colon
# OVCAR-5 ovarian = tested on: OVCAR-5 ovarian
# NCI-H460 lung = tested on: NCI-H460 lung
# SW-620 colon = tested on: SW-620 colon
# CCRF-CEM leukemia = tested on: CCRF-CEM leukemia
# MDA-MB-231 breast = tested on: MDA-MB-231 breast
# SK-MEL-28 melanoma = tested on: SK-MEL-28 melanoma
# RPMI-8226 leukemia = tested on: RPMI-8226 leukemia
# NCI-H226 lung = tested on: NCI-H226 lung
# ACHN renal = tested on: ACHN renal
# UACC-257 melanoma = tested on: UACC-257 melanoma
# HCC-2998 colon = tested on: HCC-2998 colon
# NCI-H522 lung = tested on: NCI-H522 lung
# SNB-19 CNS = tested on: SNB-19 CNS
# HL-60(TB) leukemia = tested on: HL-60(TB) leukemia
# MDA-MB-435 = tested on: MDA-MB-435
# DU-145 prostate = tested on: DU-145 prostate
# UACC-62 melanoma = tested on: UACC-62 melanoma
# TK-10 renal = tested on: TK-10 renal
# NCI/ADR-RES ovarian = tested on: NCI/ADR-RES ovarian
# HS 578T breast = tested on: HS 578T breast
# OVCAR-8 ovarian = tested on: OVCAR-8 ovarian
# IGROV1 ovarian = tested on: IGROV1 ovarian
# SN12C renal = tested on: SN12C renal
# COLO 205 colon = tested on: COLO 205 colon
# MOLT-4 leukemia = tested on: MOLT-4 leukemia
# SF-295 CNS = tested on: SF-295 CNS
# SK-OV-3 ovarian = tested on: SK-OV-3 ovarian
# HT29 colon = tested on: HT29 colon
# A498 renal = tested on: A498 renal
# CAKI-1 renal = tested on: CAKI-1 renal
# SK-MEL-5 melanoma = tested on: SK-MEL-5 melanoma
# SR leukemia = tested on: SR leukemia
# BT-549 breast = tested on: BT-549 breast
# A549 NSCLC = tested on: A549 NSCLC
# 786-0 renal = tested on: 786-0 renal
# HOP-92 NSCLC = tested on: HOP-92 NSCLC
# OVCAR-4 ovarian = tested on: OVCAR-4 ovarian
# HOP-62 NSCLC = tested on: HOP-62 NSCLC
# OVCAR-3 ovarian = tested on: OVCAR-3 ovarian
# MALME-3M melanoma = tested on: MALME-3M melanoma
# EKVX NSCLC = tested on: EKVX NSCLC
# K-562 leukemia = tested on: K-562 leukemia
smiles,measurement,setting,value
O=S(=O)(NCCCNc1nccc(-c2c(-c3ccc(F)cc3)nc3sccn23)n1)c1ccc2ccccc2c1,GI50,SF-268 CNS,6.46 µM
same,TGI,SF-268 CNS,> 100 µM
same,GI50,T-47D breast,2.85 µM
same,TGI,T-47D breast,> 100 µM
same,GI50,HCT-116 colon,4.41 µM
same,TGI,HCT-116 colon,> 100 µM
same,GI50,NCI-H23 lung,15.1 µM
same,TGI,NCI-H23 lung,> 100 µM
same,GI50,PC-3 prostate,4.36 µM
same,TGI,PC-3 prostate,> 100 µM
same,GI50,SF-539 CNS,> 100 µM
same,TGI,SF-539 CNS,> 100 µM
same,GI50,RXF 393 renal,5.21 µM
same,TGI,RXF 393 renal,> 100 µM
same,GI50,MCF7 breast,3.71 µM
same,TGI,MCF7 breast,> 100 µM
same,GI50,SK-MEL-2 melanoma,6.63 µM
same,TGI,SK-MEL-2 melanoma,> 100 µM
same,GI50,KM12 colon,2.86 µM
same,TGI,KM12 colon,9.96 µM
same,GI50,LOX IMVI melanoma,4.35 µM
same,TGI,LOX IMVI melanoma,> 100 µM
same,GI50,U251 CNS,4.87 µM
same,TGI,U251 CNS,> 100 µM
same,GI50,SNB-75 CNS,5.22 µM
same,TGI,SNB-75 CNS,> 100 µM
same,GI50,M14 melanoma,6.53 µM
same,TGI,M14 melanoma,> 100 µM
same,GI50,UO-31 renal,3.58 µM
same,TGI,UO-31 renal,> 100 µM
same,GI50,HCT-15 colon,3.26 µM
same,TGI,HCT-15 colon,> 100 µM
same,GI50,OVCAR-5 ovarian,> 100 µM
same,TGI,OVCAR-5 ovarian,> 100 µM
same,GI50,NCI-H460 lung,3.74 µM
same,TGI,NCI-H460 lung,> 100 µM
same,GI50,SW-620 colon,6.4 µM
same,TGI,SW-620 colon,> 100 µM
same,GI50,CCRF-CEM leukemia,3.13 µM
same,TGI,CCRF-CEM leukemia,> 100 µM
same,GI50,MDA-MB-231 breast,3.8 µM
same,TGI,MDA-MB-231 breast,> 100 µM
same,GI50,SK-MEL-28 melanoma,> 100 µM
same,TGI,SK-MEL-28 melanoma,> 100 µM
same,GI50,RPMI-8226 leukemia,4.05 µM
same,TGI,RPMI-8226 leukemia,> 100 µM
same,GI50,NCI-H226 lung,5.77 µM
same,TGI,NCI-H226 lung,> 100 µM
same,GI50,ACHN renal,3.42 µM
same,TGI,ACHN renal,> 100 µM
same,GI50,UACC-257 melanoma,> 100 µM
same,TGI,UACC-257 melanoma,> 100 µM
same,GI50,HCC-2998 colon,3.37 µM
same,TGI,HCC-2998 colon,9.61 µM
same,GI50,NCI-H522 lung,5.66 µM
same,TGI,NCI-H522 lung,> 100 µM
same,GI50,SNB-19 CNS,8.53 µM
same,TGI,SNB-19 CNS,> 100 µM
same,GI50,HL-60(TB) leukemia,4.25 µM
same,TGI,HL-60(TB) leukemia,> 100 µM
same,GI50,MDA-MB-435,3.67 µM
same,TGI,MDA-MB-435,> 100 µM
same,GI50,DU-145 prostate,5.53 µM
same,TGI,DU-145 prostate,> 100 µM
same,GI50,UACC-62 melanoma,4.6 µM
same,TGI,UACC-62 melanoma,> 100 µM
same,GI50,TK-10 renal,7.54 µM
same,TGI,TK-10 renal,> 100 µM
same,GI50,NCI/ADR-RES ovarian,3.89 µM
same,TGI,NCI/ADR-RES ovarian,> 100 µM
same,GI50,HS 578T breast,9.13 µM
same,TGI,HS 578T breast,> 100 µM
same,GI50,OVCAR-8 ovarian,4.63 µM
same,TGI,OVCAR-8 ovarian,> 100 µM
same,GI50,IGROV1 ovarian,5.37 µM
same,TGI,IGROV1 ovarian,> 100 µM
same,GI50,SN12C renal,4.69 µM
same,TGI,SN12C renal,> 100 µM
same,GI50,COLO 205 colon,2.22 µM
same,TGI,COLO 205 colon,4.81 µM
same,GI50,MOLT-4 leukemia,4.52 µM
same,TGI,MOLT-4 leukemia,> 100 µM
same,GI50,SF-295 CNS,6.86 µM
same,TGI,SF-295 CNS,> 100 µM
same,GI50,SK-OV-3 ovarian,> 100 µM
same,TGI,SK-OV-3 ovarian,> 100 µM
same,GI50,HT29 colon,2.4 µM
same,TGI,HT29 colon,7.58 µM
same,GI50,A498 renal,3.01 µM
same,TGI,A498 renal,> 100 µM
same,GI50,CAKI-1 renal,5.47 µM
same,TGI,CAKI-1 renal,> 100 µM
same,GI50,SK-MEL-5 melanoma,4.17 µM
same,TGI,SK-MEL-5 melanoma,> 100 µM
same,GI50,SR leukemia,4.01 µM
same,TGI,SR leukemia,> 100 µM
same,GI50,BT-549 breast,4.34 µM
same,TGI,BT-549 breast,> 100 µM
same,GI50,A549 NSCLC,4.43 µM
same,TGI,A549 NSCLC,> 100 µM
same,GI50,786-0 renal,6.19 µM
same,TGI,786-0 renal,> 100 µM
same,GI50,HOP-92 NSCLC,6.36 µM
same,TGI,HOP-92 NSCLC,> 100 µM
same,GI50,OVCAR-4 ovarian,5.99 µM
same,TGI,OVCAR-4 ovarian,> 100 µM
same,GI50,HOP-62 NSCLC,> 100 µM
same,TGI,HOP-62 NSCLC,> 100 µM
CO[C@]12C[C@H](CNC(=O)c3ccc[nH]3)O[C@H]1NC(=O)N2,TGI,SF-268 CNS,> 100 µM
same,TGI,OVCAR-3 ovarian,> 100 µM
same,TGI,T-47D breast,> 100 µM
same,TGI,HCT-116 colon,> 100 µM
same,TGI,NCI-H23 lung,> 100 µM
same,TGI,PC-3 prostate,> 100 µM
same,TGI,SF-539 CNS,> 100 µM
same,TGI,MCF7 breast,> 100 µM
same,TGI,SK-MEL-2 melanoma,> 100 µM
same,TGI,KM12 colon,> 100 µM
same,TGI,LOX IMVI melanoma,> 100 µM
same,TGI,U251 CNS,> 100 µM
same,TGI,M14 melanoma,> 100 µM
same,TGI,UO-31 renal,> 100 µM
same,TGI,HCT-15 colon,> 100 µM
same,TGI,MALME-3M melanoma,> 100 µM
same,TGI,OVCAR-5 ovarian,> 100 µM
same,TGI,NCI-H460 lung,> 100 µM
same,TGI,SW-620 colon,> 100 µM
same,TGI,CCRF-CEM leukemia,> 100 µM
same,TGI,MDA-MB-231 breast,> 100 µM
same,TGI,RPMI-8226 leukemia,> 100 µM
same,TGI,NCI-H226 lung,> 100 µM
same,TGI,ACHN renal,> 100 µM
same,TGI,UACC-257 melanoma,> 100 µM
same,TGI,NCI-H522 lung,> 100 µM
same,TGI,EKVX NSCLC,> 100 µM
same,TGI,SNB-19 CNS,> 100 µM
same,TGI,HL-60(TB) leukemia,> 100 µM
same,TGI,MDA-MB-435,> 100 µM
same,TGI,DU-145 prostate,> 100 µM
same,TGI,UACC-62 melanoma,> 100 µM
same,TGI,TK-10 renal,> 100 µM
same,TGI,NCI/ADR-RES ovarian,> 100 µM
same,TGI,HS 578T breast,> 100 µM
same,TGI,K-562 leukemia,> 100 µM
same,TGI,OVCAR-8 ovarian,> 100 µM
same,TGI,IGROV1 ovarian,> 100 µM
same,TGI,SN12C renal,> 100 µM
same,TGI,COLO 205 colon,> 100 µM
same,TGI,SF-295 CNS,> 100 µM
same,TGI,SK-OV-3 ovarian,> 100 µM
same,TGI,HT29 colon,> 100 µM
same,TGI,A498 renal,> 100 µM
same,TGI,CAKI-1 renal,> 100 µM
same,TGI,SK-MEL-5 melanoma,> 100 µM
same,TGI,SR leukemia,> 100 µM
same,TGI,BT-549 breast,> 100 µM
same,TGI,A549 NSCLC,> 100 µM
same,TGI,786-0 renal,> 100 µM
same,TGI,HOP-92 NSCLC,> 100 µM
same,TGI,HOP-62 NSCLC,> 100 µM
